Data on one molecule can be found in patent US9365612B2, “Caspase inhibitors” (United States of America as represented by the Secretary, …, priority 2010, dated 2016).

Data set [1] has as its target T1, caspase 6 (Homo sapiens, UniProt P55212).
T1 sequence (P55212 24-179 limits assumed): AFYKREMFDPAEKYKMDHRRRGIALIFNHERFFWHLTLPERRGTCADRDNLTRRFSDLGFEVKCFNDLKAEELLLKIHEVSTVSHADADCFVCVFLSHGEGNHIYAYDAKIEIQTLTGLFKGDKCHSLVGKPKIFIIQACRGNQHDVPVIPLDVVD
T1 sequence (P55212 194-293 limits assumed): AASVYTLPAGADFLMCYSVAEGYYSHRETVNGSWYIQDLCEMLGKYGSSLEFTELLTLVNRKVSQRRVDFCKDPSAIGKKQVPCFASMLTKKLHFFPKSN
To be noted: reported by Randle and coworkers (Wannamaker et al. 2007); read-out: Ki versus caspase 6; cited from earlier work.

The target of a further data set is T2, caspase 9 (Homo sapiens, UniProt P55211).
T2 construct: purchased Reaction Biology Corporation
T2 sequence (P55211 1-315 limits assumed): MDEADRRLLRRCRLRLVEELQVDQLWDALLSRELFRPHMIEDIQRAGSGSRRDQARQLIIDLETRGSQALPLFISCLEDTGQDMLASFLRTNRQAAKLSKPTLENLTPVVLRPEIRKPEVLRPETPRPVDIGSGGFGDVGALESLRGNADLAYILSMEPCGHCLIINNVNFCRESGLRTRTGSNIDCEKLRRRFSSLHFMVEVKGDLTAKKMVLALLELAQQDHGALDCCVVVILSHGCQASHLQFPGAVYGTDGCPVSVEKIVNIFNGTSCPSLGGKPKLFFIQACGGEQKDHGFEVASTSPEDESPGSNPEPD
T2 sequence (P55211 331-416 limits assumed): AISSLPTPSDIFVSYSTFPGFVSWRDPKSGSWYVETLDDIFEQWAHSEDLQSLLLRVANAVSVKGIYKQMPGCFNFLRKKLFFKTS
To be noted: reported by Randle and coworkers (Wannamaker et al. 2007); read-out: Ki versus caspase 9; cited from earlier work.

A short description of data set [2]: aqueous degradation study by LCMS over 96 hours. The settings on record: over 96 hours. The data set is classed as physicochemical. On the procedure:
In order to evaluate the agent's stability profile, VX-765 (1), VRT-043198 (2b), NCGC00185682 (3), NCGC00183434 (4) and NCGC00183681 (16) were examined within an aqueous degradation study at neutral (pH 7) acidic (pH 2) and basic (pH 8) conditions. The study was conducted by monitoring the degradation of each agent by LCMS analysis at various time points over 96 hours (FIG. 8). […] This degradation was amplified in both basic and acidic conditions. Conversely, the active agent VRT-043198 (2b) was very stable in both water and acidic conditions and its degradation at pH 8 was moderate.

For data set [3], the target named is T3, caspase 8 (Homo sapiens, UniProt Q14790). To be noted: reported by Randle and coworkers (Wannamaker et al. 2007); read-out: Ki versus caspase 8; cited from earlier work.
T3 sequence (Q14790 217-374 limits assumed): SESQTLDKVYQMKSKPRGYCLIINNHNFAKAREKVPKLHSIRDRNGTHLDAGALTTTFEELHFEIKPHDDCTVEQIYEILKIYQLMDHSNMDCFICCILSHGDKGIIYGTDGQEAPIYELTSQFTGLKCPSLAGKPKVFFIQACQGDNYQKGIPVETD
T3 sequence (Q14790 385-479 limits assumed): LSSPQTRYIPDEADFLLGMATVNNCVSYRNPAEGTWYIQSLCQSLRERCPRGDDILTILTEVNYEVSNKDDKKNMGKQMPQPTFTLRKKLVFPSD
For a further data set, the target named is T4, caspase 14 (Homo sapiens, UniProt P31944).
T4 construct: purchased Reaction Biology Corporation
T4 sequence (P31944 6-146 limits assumed): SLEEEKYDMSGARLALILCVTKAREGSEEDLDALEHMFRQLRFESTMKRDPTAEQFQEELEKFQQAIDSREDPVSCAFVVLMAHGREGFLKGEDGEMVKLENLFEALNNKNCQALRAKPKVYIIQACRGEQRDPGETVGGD
T4 sequence (P31944 153-242 limits assumed): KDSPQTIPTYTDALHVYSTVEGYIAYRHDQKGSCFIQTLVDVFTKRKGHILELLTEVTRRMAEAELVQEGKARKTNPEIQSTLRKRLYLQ
In words: commercial panel of caspases (Reaction Biology Corporation), caspase 14. It is filed as biochemical. The settings on record: read-out: IC50 versus caspase 14. The source says:
(§1) Having established that the compounds (3), (4) and (16) are potent inhibitors of caspase 1, the selectivity of these agents was examined. […] Wannamaker, W.; Davies, R.; Namchuk, M.; Pollard, J.; Ford, P.; Ku, G.; Decker, C.; Charifson, P.; Weber, P.; Germann, U. A.; Kuida, K.; Randle, J. C. R. J. Pharmacol. Exp. Ther. 2007, 321, 509-516. […] VRT-043198 (2b), NCGC00185682 (3), NCGC00183434 (4) and NCGC00183681 (16) were entered within a commercial panel of caspases offered by Reaction Biology Corporation. […] A particularly interesting aspect of these molecules was the high selectivity for caspase 1. […] All other activities were about the 1 μM threshold.

Data set [4] is described as follows: plasma protein binding, human. The data set is classed as in vitro ADME. To be noted: relative to VX-765 (1) and NCGC00185682 (3). On the procedure: (§2) Given the aqueous stability of these new agents, selected ADME properties for chosen compounds were also examined. VX-765 (1), VRT-043198 (2b), NCGC00185682 (3), NCGC00183434 (4) and NCGC00183681 (16) were evaluated for a profile of bi-directional Caco-2 permeability, plasma protein binding (both human and rat) and microsomal stability (both human and rat) studies (FIG. 9, Table 2). […] The clearance rates (Clint) and t ½ for VRT-043198 (2b), NCGC00185682 (3), NCGC00183434 (4) and NCGC00183681 (16) were all moderate.

Data set [5] concerns the target T3, caspase 8. Nature of the data set: commercial panel of caspases (Reaction Biology Corporation), caspase 8. To be noted: read-out: IC50 versus caspase 8. The data set is classed as biochemical.
Description: as §1

In data set [6] the test system is caspases 3, 7, granzyme B, cathepsin B and tyrpsin. The settings on record: reported by Randle and coworkers; cited from earlier work.
Data set [7] in a line: plasma protein binding, rat. The settings on record: relative to VX-765 (1) and NCGC00185682 (3). The data set is classed as in vitro ADME. On the procedure: as §2
A further data set addresses T5, caspase 4 (Homo sapiens, UniProt P49662).
T5 construct: purchased Reaction Biology Corporation
T5 sequence (P49662 81-270 limits assumed): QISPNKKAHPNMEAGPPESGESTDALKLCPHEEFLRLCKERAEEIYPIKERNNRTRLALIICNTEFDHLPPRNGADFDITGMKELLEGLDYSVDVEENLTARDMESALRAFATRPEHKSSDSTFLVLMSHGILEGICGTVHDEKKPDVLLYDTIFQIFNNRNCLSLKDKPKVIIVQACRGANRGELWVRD
T5 sequence (P49662 290-377 limits assumed): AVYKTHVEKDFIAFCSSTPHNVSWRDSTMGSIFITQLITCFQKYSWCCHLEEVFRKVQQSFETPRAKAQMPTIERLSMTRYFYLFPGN
Nature of the data set: commercial panel of caspases (Reaction Biology Corporation), caspase 4. The data set is classed as biochemical. The settings on record: read-out: IC50 versus caspase 4.
Description: as §1

Data set [8] has as its target T1, caspase 6. In words: commercial panel of caspases (Reaction Biology Corporation), caspase 6. The settings on record: read-out: IC50 versus caspase 6. The data set is classed as biochemical.
Description: as §1

pIC50, pKi: −log10 of the molar value.

Take `CC(C)(C)[C@H](NC(=O)c1ccc(N)c(Cl)c1)C(=O)N1CCC[C@H]1C(=O)N[C@H](C=O)CC(=O)O` [VRT-043198 (2b), reference compound]: the pKi on caspase 6 [1] was 6.25; on caspase 9 it was 5.99; at caspase 8 [3] it was 7.00. The “aqueous stability in acidic conditions (pH 2)” value in [2] (pH 2, LCMS) is on record as “very stable”. In addition, in data set [2] (pH 7, LCMS), the “aqueous stability in neutral conditions (water, pH 7)” value is recorded as “very stable”. Further, the “aqueous stability in basic conditions (pH 8)” value in data set [2] (pH 8, LCMS) is given as “moderate”. In addition, the pIC50 at caspase 14 was 7.23; at caspase 8 [5] it was 8.48; at caspase 4 it was 7.84; at caspase 6 [8], less than 5.00. Moreover, the “free fraction in protein binding assay” value in data set [4] and in data set [7] was “significantly higher” in each case. In addition, the “activity versus the remaining targets” value in data set [6] was “little activity”.

One may read the pKi as −log10 of the Ki, conventionally taken in molar units. Usually pIC50 stands for the IC50 on a negative log10 scale, so that one unit is a factor of ten.
